ChEMBL document CHEMBL1130043, “Chemometric methodologies in a quantitative structure-activity relationship study: the antibacterial activity of 6-aminoquinolones” (1997)

Experiments:
Format in all cases: functional
[1] = system: Staphylococcus epidermidis; assay: Antibacterial activity against Staphylococcus epidermidis HCF Berset C (Gram positive) strain.
Escherichia coli [2] = assay: Antibacterial activity against Escherichia coli ATCC 8739(Gram negative) strain.
Staphylococcus aureus [3] = assay: Antibacterial activity against Staphylococcus aureus ATCC 6538 (Gram positive) strain.
Enterococcus faecalis = assay: Antibacterial activity against Streptococcus faecalis LEP Br (Gram positive) strain.
Pseudomonas aeruginosa = assay: Antibacterial activity against Pseudomonas aeruginosa ATCC 9027(Gram negative) strain.
[4] = system: Staphylococcus epidermidis; assay: Antibacterial activity against Staphylococcus epidermidis CPHL A2 (Gram positive) strain, activity is expressed as log2MIC.
Shigella = assay: Antibacterial activity against Shigella enteritidis (Gram negative) strain.
Klebsiella pneumoniae = assay: Antibacterial activity against Klebsiella pneumoniae ATCC 10031 (Gram negative) strain.
Providencia stuartii = assay: Antibacterial activity against Providencia stuartii CNUR 5(Gram negative) strain.
[5] = system: Acinetobacter calcoaceticus; assay: Antibacterial activity against Acinetobacter calcoaceticus OSMPV 113 (Gram negative) strain.
Enterobacter cloacae = assay: Antibacterial activity against Enterobacter cloacae OMNFI 174 (Gram negative) strain.
Escherichia coli [6] = assay: Antibacterial activity against Escherichia coli ISF 432(Gram negative) strain.
Staphylococcus aureus [7] = assay: Antibacterial activity against Staphylococcus aureus MPR 5 (Gram positive) strain.

Log2 MIC [1]	Log2 MIC (Escherichia coli [2])	Log2 MIC (Staphylococcus aureus [3])	Log2 MIC (Enterococcus faecalis)	Log2 MIC (Pseudomonas aeruginosa)	Log2 MIC [4]	Log2 MIC (Shigella)	Log2 MIC (Klebsiella pneumoniae)	Log2 MIC (Providencia stuartii)	Log2 MIC [5]	Log2 MIC (Enterobacter cloacae)	Log2 MIC (Escherichia coli [6])	Log2 MIC (Staphylococcus aureus [7])	Structure (SMILES)
5	9	6	2	5	6	9	12	4	2	9	12	6	CN1CCN(c2cc3c(cc2N)c(=O)c(C(=O)O)cn3C2CC2)CC1
7	10	8	5	5	8	5	12	8	7	7	11	9	Nc1cc2c(=O)c(C(=O)O)cn(C3CC3)c2c(F)c1N1CCSCC1
2	8	0	0	2	1	6	8	0	2	6	8	0	NCCN1CCN(c2cc3c(cc2N)c(=O)c(C(=O)O)cn3C2CC2)CC1
5	12	6	5	5	5	9	12	6	6	10	12	6	CN1CCN(c2c(N)c(N)c3c(=O)c(C(=O)O)cn(C4CC4)c3c2F)CC1
6	12	8	4	6	7	8	12	7	7	8	12	8	Nc1cc2c(=O)c(C(=O)O)cn(C3CC3)c2cc1N1CCSCC1
4	10	5	0	1	4	2	10	1	3	3	10	4	CC(C)(C)n1cc(C(=O)O)c(=O)c2cc(N)c(N3CCCC3)cc21
0	6	0	0	0	0	1	6	0	0	1	5	0	Nc1cc2c(=O)c(C(=O)O)cn(C3CC3)c2cc1NC1CC1
0	9	0	0	0	0	3	9	0	0	4	9	0	Nc1cc2c(=O)c(C(=O)O)cn(C3CC3)c2cc1N1CCCC1
8	11	9	4	5	8	6	12	5	8	6	12	9	CC(C)(C)n1cc(C(=O)O)c(=O)c2cc(N)c(N3CCSCC3)cc21
5	12	5	4	4	6	6	12	4	0	6	12	5	Nc1cc2c(=O)c(C(=O)O)cn(C3CC3)c2cc1N1CCC(O)CC1
1	8	1	0	0	1	2	8	0	0	3	7	0	Nc1cc2c(=O)c(C(=O)O)cn(C3CC3)c2cc1N1CCSC1
6	11	7	3	6	7	9	12	6	6	8	12	7	Cc1c(N2CC(C)NC(C)C2)c(N)cc2c(=O)c(C(=O)O)cn(C3CC3)c12 (stereo unspecified)
5	10	6	1	2	5	4	10	5	4	4	10	6	CC(C)(C)n1cc(C(=O)O)c(=O)c2cc(N)c(N3CCc4ccccc43)cc21
1	5	1	1	2	1	6	6	1	1	6	6	1	N#CCN1CCN(c2cc3c(cc2N)c(=O)c(C(=O)O)cn3C2CC2)CC1
6	8	7	3	0	7	1	9	0	7	1	8	7	CC(C)(C)n1cc(C(=O)O)c(=O)c2cc(N)c(N3CCN(c4ccccn4)CC3)cc21
5	12	4	2	6	6	9	12	5	4	8	12	4	CC1CN(c2cc3c(cc2N)c(=O)c(C(=O)O)cn3C2CC2)CC(C)N1 (stereo unspecified)
4	7	5	1	6	5	8	11	5	4	9	11	5	CN1CCN(c2c(N)cc3c(=O)c(C(=O)O)cn(C4CC4)c3c2F)CC1
5	10	5	0	6	5	10	12	6	5	10	12	5	CN1CCN(c2nc3c(cc2N)c(=O)c(C(=O)O)cn3C2CC2)CC1
5	12	3	2	6	5	9	12	3	3	9	12	3	CC1CN(c2cc3c(cc2N)c(=O)c(C(=O)O)cn3C2CC2)CCN1 (stereo unspecified)
7	10	9	4	2	8	4	10	5	6	4	10	8	CC(C)(C)n1cc(C(=O)O)c(=O)c2cc(N)c(N3CCc4ccccc4C3)cc21
3	9	1	0	6	3	8	9	2	3	9	12	1	Nc1cc2c(=O)c(C(=O)O)cn(C3CC3)c2cc1N1CCNCC1

Structure (SMILES)	Log2 MIC [1]	Log2 MIC (Escherichia coli [2])	Log2 MIC (Staphylococcus aureus [3])	Log2 MIC (Enterococcus faecalis)	Log2 MIC (Pseudomonas aeruginosa)	Log2 MIC [4]	Log2 MIC (Shigella)	Log2 MIC (Klebsiella pneumoniae)	Log2 MIC (Providencia stuartii)	Log2 MIC [5]	Log2 MIC (Enterobacter cloacae)	Log2 MIC (Escherichia coli [6])	Log2 MIC (Staphylococcus aureus [7])
Cc1c(N2CCNCC2)c(N)cc2c(=O)c(C(=O)O)cn(C3CC3)c12	4	12	6	3	7	5	12	12	6	6	11	12	5
